Several values for one entry are separate records, joined by “and”; a condition that tells them apart may be missing. Equal entries are not always repeated. Entries after “also recorded” stand apart in the source; their conditions may differ. Where two headings read alike, the source gives them in different places.
Tests used:
[1] = tested on: OHHL induced LuxR dependent expression of GFP; experiment: Quantitative furanone inhibition of the LuxR-PluxI-gfp(ASV) quorum sensor in E. coli MT102 (pJBA89); format: cell-based, Escherichia coli; conditions: gradient of furanone concentration lowering RFU to 40% versus OHHL concentration (5-100 nM)
Description: To analyse the AHL antagonist activity of the halogenated furanones we tested the compounds for their ability to inhibit 3oxo-C6-HSL (OHHL) induced LuxR dependent expression of green fluorescent protein (GFP) from a Pgfp(ASV) fusion in the AHL monitor strain E. coli MT102 harbouring pJBA89 (Andersen et al., 2001).
The medium used is minimal ABT containing 0.5% glucose and 0.5% Casamino Acids. In growing cultures of the AHL monitor strain E. coli Mt102 (pJBA89) encoding […] and a P-gfp(ASV) fusion, GFP(ASV) is produced immediately upon OHHL addition specifically from the LuxR controlled P-gfp(ASV) fusion gene. The sensitivity is high (responsive to as little as 3 nm OHHL) and due to the instability built into the GFP (ASV) variant there is no background production of green fluoroscence (Andersen et al., 2001). GFP expression from the AHL monitor strain E. coli MT102 (pJBA89) and the control strain MT102 harbouring the lacl^q, Plas-gfp(ASV) IPTG inducible expression system pMH197 was quantified in the following way. Overnight cultures were diluted four fold in fresh medium and incubated for one hour at 30° C. while OHHL and furanone compounds in the required concentrations were mixed in the wells of microtiter dishes. […] When absolute values were required, green fluoroscence was measured on a fluorometer (model RF-1501; Shimadzu, Tokyo, Japan) act at an excitation wavelength of 475 nm and emission detection at 515 nm. To establish a correlation between the colour code of the ARGUS-50 captured images and green fluorescence, both colour and relative fluorescence units (RFU), were determined for a dilution series of an E. coli MT102 (pJBA89) culture which had been incubated with […]. […]
From the second plot, the furanone concentration reducing the relative activity to 40% (ID60) is determined for each OHHL concentration. […]
To enable easy comparison of the strength of the furanones, an inhibition index (IIX40) is calculated for each furanone compound. […]

[2] = tested on: las quorum sensing system (lasB-gfp(ASV) Plac-lasR); experiment: pMHLAS lasB-gfp(ASV) reporter in E. coli MT102; format: cell-based, Escherichia coli; conditions: for induction of the lasB-gfp(ASV) monitor by AHL compounds: E. coli with pMHLAS, AHLs 0 to 1000 nM
Description: (§1) AHL and furanone bioassay. Strains were grown exponentially in LB or ABt medium supplemented with 0.5% glucose at 30° C., shading at 250 rpm. At an optical density of approximately 0.8. the cultures were diluted and split into subcultures in glass culture flasks. AHLs and furanone 56 were added to appropriate concentrations and the cultures were further incubated at 30° C. under vigorous shaking. Culture samples were retrieved at various time intervals and green fluorescence was measured with a fluorometer (model RF-1501, Shimadzu, Tokyo, Japan) set at an excitation wavelength of 475 nm and emission wavelength of 515 nm. Relative fluorescence was calculated as green fluorescence normalized to 1 ml culture divided by the optical density (OD600 nm.
(§2) Initially, the lasB-gfp(ASV) translational fusion (OdDHL sensor) was thoroughly characterized with respect to its sensitivity and specificity. A culture of E. coli hosting the pMHLAS monitor plasmid was diluted and spilt into several subcultures which were then supplemented with AHLs at concentrations ranging from 0 to 1000 nM. […] When the pMHLAS based reporter system was hosted by PAO-JP2. the OdDHL concentration required for half-maximal activation of the lasB-gfp(ASV) fusion was 8 nM (data not shown). In single copy on the chromosome of PAO-JP2, the OdDHL concentration on required for half-maximal activation of lasB expression was approximately 250 nM (FIG. 2b). Green fluorescent cells were visible by epifluorescence microscopy at a minimal OdDHL concentration of 50 nM (FIG. 2c).
Effect of the furanone in a heterologous background. The direct regulation exerted by the las regulon on lasB expression is well described by numerous studies (Gambello & Iglewski, 1991: Pearson et al., 1994; Pearson et al., 1997). Regulatory complexity is added by the observation that the las quorum sensing circuit itself is subject to global regulators (Albus et al., 1997; Whiteley et al., 2000) and that lasB expression is also controlled by other regulators than LasR (Brumlik & Storey, 1992; Pesci et al., 1999; Schictman et al., 1995). It was, therefore, important to rule out that QSI effect, observed is not caused by furanone interaction with high levels of control. Since there is no AHL-based quorum sensing system present in Escherichia coli (Williams et al., 2000), this bacterium provides an unbiased and well-defined genetic background for studying the direct effects of the furanone on the P. aeruginosa las quorum sensing system. We repeated the above-described experiments using E. coli MT102 as a heterologous host for the reporter system. […] This is likely to be attributed to the increased copy number of the reporter plasmid.

[3] = tested on: las quorum sensing system (lasB-gfp(ASV) expression); experiment: AHL and furanone bioassay, PlasB-gfp(ASV) Plac-lasR reporter in planktonic PAO-JP2; format: cell-based, Pseudomonas aeruginosa
Description: as §1, §2
Noteworthy, the inhibitory effect of furanone 56 was relieved at increased concentrations of OdDHL.

elastase = experiment: Virulence factor production: elastase (proteolytic) activity of PAO-JP2 supernatant; format: cell-based, Pseudomonas aeruginosa
Description: Measurements of virulence factors. PAO-JP2 was grown in LB medium at 37° C. and shaking at 250 rpm to an OD600 nm of 1.0. The culture was divided into seven subcultures, which were added 0, 70, or 1000 nm OdDHL and 0. 3. or 5 μg/ml furanone 58. The cultures were grown for an additional 4 hours at 37° C. The proteolytic activity was measured as described by Ayora & G{overscore (o)}tz (1994). Azocasein (250 μl 2%, Sigma, St. Louis, Mo.) in 50 mM Tris/HCl and steril-filtered (Ø 0.2 μm) supernatant (150 μl) were incubated for 4 h at […] After precipitation of undigested substrate with trichloroacetic acid (1.2 ml 10%) for 15 minutes, followed by 10 minutes centrifugation at 1000 rpm, NaOH (1.4 ml 1 M) were added to the supernatant. The relative protease activity was measured as the absorbance at 440 nm (OD440 nm) of the supernatant divided by the optical density of the culture (OD600 nm ).

chitinase = experiment: Virulence factor production: chitinase activity of PAO-JP2 supernatant; format: cell-based, Pseudomonas aeruginosa
Description: The chitinase activity assay was performed as described by the assay manufacturer (Loewe Biochemica, Sauerlach, Germany). Supernatant (560 μl) of cultures prepared as described for the elastase assay was mixed with carboxymethyl-chitin-remazol brilliant violet (200 μl) and sodium phosphate buffer (40 μl, 1 M, pH 7.5). The reaction mixture was incubated for 18 h at 40° C. in a waterbath. The reaction was stopped by addition of HCl (200 μl, 2 N) and kept for 15 min on ice. After centrifugation (10 min at 15000 rpm), the absorbance (OD550 nm) of the supernatant was measured. The relative chitinase activity was calculated as OD550 nm/OD600 nm normalized to 1 ml supernatant.

[4] = tested on: lasB-gfp(ASV) reporter in P. aeruginosa PAO-JP2 biofilm; experiment: OdDHL-mediated signalling in PAO-JP2 flowcell biofilm, lasB-gfp(ASV) reporter, CSLM; format: cell-based, Pseudomonas aeruginosa
Description: P. aeruginosa biofilms. Biofilms were grown at 30° C. in three-dimensional flow cells (Christensen et al., 1999) with individual channel dimensions of 0.3×4×40 mm supplied With ABt minimal medium supplemented with 2% LB. The flow system was assembled and prepared as described by Christensen et al. (1999). The substratum consisted of a microscope glass coverslip (Knittel 24×50 mm st1, Knittel Glaser, Braunschweig, Germany). Cultures for inoculation of the flow channels were prepared in the following way: P. aeruginosa strains were streaked on LB plates with the appropriate antibiotics and incubated for 24 h at 37° C. From each plate a single colony was used for inoculation of 10 ml ABt with 10% LB. The cultures were grown at, 30° C. for 18 h before they were diluted to an OD600 nm of 0.1 in sterile 0.9% NaCl and used for inoculation of the flow channels. Medium flow was kept at a constant rate of 3 mL/h, equivalent to a mean flow velocity of 0.7 mm/s, using a Watson-Marlow 205S peristaltic pump (Watson-Marlow, Falmouth, England). Biofilms were grown for 24 hours before being shifted to media containing AHL and furanone.
Scanning confocal laser microscopy (SCLM). Microscopic inspection and image acquisition were performed an a scanning confocal laser microscope (model TCS4D, Leica Lasertechnik GmbH, Heldelberg, Germany) equipped with a 63×/1.32-0.6 oil objective. The microscope was equipped with a motorized and programmable xy-stage, which was used for monitoring single colonies during the biofilm experiments. At the beginning of each online experiment, the microscope was programmed to track single randomly selected microcolonies; the sensitivity of photo multipliers and the laser intensity were adjusted and thereafter kept constant through out the duration of the experiments. Image scanning was carried out using the 488 nm and 568 nm lines of an Ar/Kr laser for detection of Gfp and Rfp, respectively. Visualization of captured images was performed using the IMARIS software package (Bitplane AG, Zúrich, Switzerland) running on a Silicon Graphics Indigo 2 workstation (Silicon Graphics, Mountain View, Calif. USA).
Inhibition of AHL-mediated signalling in P. aeruginosa biofilms. The lasB-gfp(ASV) reported was integrated into the chromosome of PAO-JP2 to ensure stable segregation and a constant gene dosage of the reported system. The strain was growth in flowcells for 24 hours in ABt-LB medium and a 10-15 μm thick biofilm developed. The media flow was subsequently switched to ABt-LB medium containing the appropriate AHL and furanone concentrations. The development of green fluorescence was monitored online by CSLM for 8 hours.

lasB promotor = conditions: Gray et al., 1994; cited from earlier work
lasB promoter = conditions: Pearson et al (1995), pKDT17 in PAO-R1; read-out: OdDHL required for half-maximal activation of a similar construct; cited from earlier work
P. aeruginosa = conditions: cited from earlier work

CCCCC1=C(Br)/C(=C/Br)OC1=O [Compound 2]
inhibition index (IIX40) [1]: 0.75 mole of furanone per mmole of

CCCCCCCC(=O)CC(=O)N[C@H]1CCOC1=O [ODHL, N-[3-oxo-decanoyl]-L-homoserine lactone]
induction of the lasB-gfp(ASV) monitor by AHL compounds [2]: activated lasB-expression albelt at a lower level; also recorded: less efficient

CCCCCC(=O)CC(=O)N[C@H]1CCOC1=O [OOHL, N-[3-oxo-octanoyl]-L-homoserine lactone]
induction of the lasB-gfp(ASV) monitor by AHL compounds [2]: less efficient

CCCCCCCCCC(=O)CC(=O)N[C@H]1CCOC1=O [OdDHL, N-[3-oxo-dodecanoyl]-L-homoserine lactone]
minimal OdDHL concentration at which green fluorescent cells were visible by epifluorescence microscopy ([3]; mini-Tn5 reporter in PAO-JP2): 50 nM | EC50 ([3]; pMHLAS based (plasmid) reporter hosted by PAO-JP2, data not shown, read-out: OdDHL concentration required for half-maximal activation of the lasB-gfp(ASV) fusion): 0.008 µM | EC50 ([3]; reporter in single copy on the chromosome of PAO-JP2, read-out: OdDHL concentration required for half-maximal activation of lasB expression): ~0.25 µM and 0.25 µM | lowest OdDHL concentration detected by the reporter ([3]; single chromosomal copy, data not shown): 20 nM | induction of the lasB-gfp(ASV) monitor by AHL compounds [2]: most efficient inducer | increased responsiveness to OdDHL of the E. coli strain harboring the lasB reporter ([2]; compared with the PAO-JP2 reporter): approx. 10 fold | elastase activity (elastase; PAO-JP2, 70 nm OdDHL): induced | elastase activity in furanone-treated culture (elastase; addition of 1 μM OdDHL): entirely restored | chitinase activity (chitinase; PAO-JP2, 70 nm OdDHL): induced | chitinase activity in furanone-treated culture (chitinase; addition of 1 μM OdDHL): entirely restored | lowest OdDHL concentration inducing lasB promoter activity in PAO-JP2 biofilms [4]: 20 nM | expression of the lasB-gfp(ASV) reporter fusion in biofilm ([4]; 40 nm OdDHL): induced and visible in the single cells within four hours | induction of the promotor in response to OdDHL addition (lasB promotor): 63 fold | EC50 (lasB promoter): 1 µM

NC[C@H]1O[C@H](O[C@H]2[C@H](O)[C@@H](O[C@H]3O[C@H](CO)[C@@H](O)[C@H](N)[C@H]3O)[C@H](N)C[C@@H]2N)[C@H](N)C[C@@H]1O [tobramycin]
resistance in the biofilm form compared to the planktonic cells (P. aeruginosa): 50,000 times
